Values quoted from earlier work, collected in patent publication US6723737B1 (priority 1999, dated 2004).

Tests used:
[1] = tested on: young men; settings: after caffeine ingestion, statistically significant
[2] = tested on: genetically obese experimental animals

SMILES | levels of free fatty acids [1] | weight loss [2]
Cn1c(=O)c2c(ncn2C)n(C)c1=O [caffeine, 1,3,7-trimethylxanthine] | increased the levels of free fatty acids | did not produce weight loss
Cn1c(=O)c2[nH]cnc2n(C)c1=O [theophylline, 1,3-dimethylxanthine] |  | did not produce weight loss
